The values that follow are results of earlier work, collected in patent US20160375041A1, “INHIBITION OF ISOPRENOID BIOSYNTHETIC PATHWAYS TO TREAT AUTOIMMUNE DISORDERS” (priority 2013, published 2016).

The series has as its system Vγ9Vδ2 TCR. As to conditions: microbial derived HMBPP; fold more potent as stimulatory pyrophosphate.

`C/C(=C\COP(=O)(O)OP(=O)(O)O)CO` [HMBPP, (E)-4-Hydroxy-3-methyl-but-2-enyl pyrophosphate]: the “potency relative to any other known, naturally-occurring pyrophosphate” value was “over 10,000”.
